Reference: patent publication US8822444B2, “Hepatitis C virus inhibitors” (Bristol-Myers Squibb Company, priority 2009, dated 2014)

System: HCV 1b genotype
Experiment: HCV Replicon assay
Format: cell-based
Conditions: HCV 1b genotype replicon; read-out: 1b EC50 Range
Protocol: An HCV Replicon assay was utilized in the present disclosure, and was prepared, conducted and validated as described in commonly owned PCT/US2006/022197 and in O'Boyle et. al. Antimicrob Agents Chemother. 2005 April; 49(4):1346-53. Assay methods incorporating luciferase reporters have also been used as described (Apath.com).
HCV-neo replicon cells and replicon cells containing mutations in the NS5A region were used to test the currently described family of compounds. The compounds were determined to have more than 10-fold less inhibitory activity on cells containing mutations than wild-type cells. Thus, the compounds of the present disclosure can be effective in inhibiting the function of the HCV NS5A protein and are understood to be as effective in combinations as previously described in application PCT/US2006/022197 and commonly owned WO/04014852. Further, the compounds of the present disclosure can be effective against the HCV 1b genotype. It should also be understood that the compounds of the present disclosure can inhibit multiple genotypes of HCV. […] In one embodiment, compounds of the present disclosure are inhibitory versus 1a, 1b, 2a, 2b, 3a, 4a, and 5a genotypes.

| Compound | EC50 [nM] |
| --- | --- |
| COC(=O)N[C@@H](C)C(=O)N1CCC[C@H]1c1nc(C2=CCC(C3CC=C(c4c[nH]c([C@@H]5CCCN5C(=O)[C@H](C)NC(=O)OC)n4)CC3)CC2)c[nH]1 (stereo partly drawn) [QC-2, methyl ((1S)-2-((2S)-2-(4-(4′-(2-((2S)-1-(N-(methoxycarbonyl)-L-alanyl)-2-pyrrolidinyl)-1H-imidazol-4-yl)-1,1′-bi(3-cyclohexen-1-yl)-4-yl)-1H-imidazol-2-yl)-1-pyrrolidinyl)-1-methyl-2-oxoethyl)carbamate] | 4.57 to 99 |
| CCN(CC)[C@@H](C(=O)N1CCC[C@H]1c1nc(C2=CCC(C3CC=C(c4c[nH]c([C@@H]5CCCN5C(=O)[C@@H](c5ccccc5)N(CC)CC)n4)CC3)CC2)c[nH]1)c1ccccc1 (stereo partly drawn) [QC-3, (1R,1′R)-2,2′-(1,1′-bi(3-cyclohexen-1-yl)-4,4′-diylbis(1H-imidazole-4,2-diyl(2S)-2,1-pyrrolidinediyl))bis(N,N-diethyl-2-oxo-1-phenylethanamine)] | 2 to 4.57 |
| COC[C@H](NC(=O)OC)C(=O)N1CCC[C@H]1c1nc(C2=CCC(C3CC=C(c4c[nH]c([C@@H]5CCCN5C(=O)[C@H](COC)NC(=O)OC)n4)CC3)CC2)c[nH]1 (stereo partly drawn) [QC-4, methyl ((1S)-2-((2S)-2-(4-(4′-(2-((2S)-1-(N-(methoxycarbonyl)-O-methyl-L-seryl)-2-pyrrolidinyl)-1H-imidazol-4-yl)-1,1′-bi(3-cyclohexen-1-yl)-4-yl)-1H-imidazol-2-yl)-1-pyrrolidinyl)-1-(methoxymethyl)-2-oxoethyl)carbamate] | 4.57 to 99 |

Same assay, conditions: Hepatitis C virus; HCV 1b genotype replicon; read-out: 1b EC50 (in nM or range)

| Compound | EC50 [nM] |
| --- | --- |
| COC(=O)N[C@H](C(=O)N1CCC[C@H]1c1nc(C2=CCC(c3ccc(-c4c[nH]c([C@@H]5CCCN5C(=O)[C@@H](NC(=O)OC)C(C)C)n4)cc3)CC2)c[nH]1)C(C)C (mixture of isomers) [QC-9, methyl ((1S)-1-(((2S)-2-(4-(4-(4-(2-((2S)-1-((2S)-2-((methoxycarbonyl)amino)-3-methylbutanoyl)-2-pyrrolidinyl)-1H-imidazol-4-yl)phenyl)-1-cyclohexen-1-yl)-1H-imidazol-2-yl)-1-pyrrolidinyl)carbonyl)-2-methylpropyl)carbamate] | 0.011 |
| COC(=O)N[C@H](C(=O)N1CCC[C@H]1c1nc(-c2ccc(C34CCC(c5c[nH]c([C@@H]6CCCN6C(=O)[C@@H](NC(=O)OC)C(C)C)n5)(CC3)CC4)cc2)c[nH]1)C(C)C [Example M-1, methyl ((1S)-1-(((2S)-2-(4-(4-(4-(2-((2S)-1-((2S)-2-((methoxycarbonyl)amino)-3-methylbutanoyl)-2-pyrrolidinyl)-1H-imidazol-4-yl)phenyl)bicyclo[2.2.2]oct-1-yl)-1H-imidazol-2-yl)-1-pyrrolidinyl)carbonyl)-2-methylpropyl)carbamate] | 0.009 |

Same assay, conditions: Hepatitis C virus; HCV 1b genotype replicon; read-out: 1b EC50 Range

| Compound | EC50 [nM] |
| --- | --- |
| COC(=O)N[C@H](C(=O)N1CCC[C@H]1c1nc(C2=CCC(c3ccc(-c4c[nH]c([C@@H]5CCCN5C(=O)[C@@H](NC(=O)OC)C(C)C)n4)cc3)CC2)c[nH]1)C(C)C (mixture of isomers) [QC-9, methyl ((1S)-1-(((2S)-2-(4-(4-(4-(2-((2S)-1-((2S)-2-((methoxycarbonyl)amino)-3-methylbutanoyl)-2-pyrrolidinyl)-1H-imidazol-4-yl)phenyl)-1-cyclohexen-1-yl)-1H-imidazol-2-yl)-1-pyrrolidinyl)carbonyl)-2-methylpropyl)carbamate] | 2 to 4.57 |
| COC(=O)N[C@H](C(=O)N1CCC[C@H]1c1nc(-c2ccc(C3CCC(c4c[nH]c([C@@H]5CCCN5C(=O)[C@@H](NC(=O)OC)C(C)C)n4)CC3)cc2)c[nH]1)C(C)C (single isomer, unassigned) [QC-16] | 2 to 4.57 |
| COC(=O)N[C@H](C(=O)N1CCC[C@H]1c1nc(-c2ccc(C34CCC(c5c[nH]c([C@@H]6CCCN6C(=O)[C@@H](NC(=O)OC)C(C)C)n5)(CC3)CC4)cc2)c[nH]1)C(C)C [Example M-1, methyl ((1S)-1-(((2S)-2-(4-(4-(4-(2-((2S)-1-((2S)-2-((methoxycarbonyl)amino)-3-methylbutanoyl)-2-pyrrolidinyl)-1H-imidazol-4-yl)phenyl)bicyclo[2.2.2]oct-1-yl)-1H-imidazol-2-yl)-1-pyrrolidinyl)carbonyl)-2-methylpropyl)carbamate] | 2 to 4.57 |
| COC(=O)N[C@@H](C)C(=O)N1CCC[C@H]1c1nc(-c2ccc(C34CCC(c5c[nH]c([C@@H]6CCCN6C(=O)[C@H](C)NC(=O)OC)n5)(CC3)CC4)cc2)c[nH]1 [Example M-2, methyl ((1S)-2-((2S)-2-(4-(4-(4-(2-((2S)-1-(N-(methoxycarbonyl)-L-alanyl)-2-pyrrolidinyl)-1H-imidazol-4-yl)bicyclo[2.2.2]oct-1-yl)phenyl)-1H-imidazol-2-yl)-1-pyrrolidinyl)-1-methyl-2-oxoethyl)carbamate] | 4.57 to 99 |
| COC(=O)N[C@@H](C(=O)N1CCC[C@H]1c1nc(-c2ccc(C34CCC(c5c[nH]c([C@@H]6CCCN6C(=O)[C@H](NC(=O)OC)c6ccccc6)n5)(CC3)CC4)cc2)c[nH]1)c1ccccc1 [Example M-3, methyl ((1R)-2-((2S)-2-(4-(4-(4-(2-((2S)-1-((2R)-2-((methoxycarbonyl)amino)-2-phenylacetyl)-2-pyrrolidinyl)-1H-imidazol-4-yl)bicyclo[2.2.2]oct-1-yl)phenyl)-1H-imidazol-2-yl)-1-pyrrolidinyl)-2-oxo-1-phenylethyl)carbamate] | 2 to 4.57 |
| COC(=O)N[C@H](C(=O)N1CCC[C@H]1c1nc(-c2ccc(C34CCC(c5coc([C@@H]6CCCN6C(=O)[C@@H](NC(=O)OC)C(C)C)n5)(CC3)CC4)cc2)c[nH]1)C(C)C [Example M-4, methyl ((1S)-1-(((2S)-2-(4-(4-(4-(2-((2S)-1-((2S)-2-((methoxycarbonyl)amino)-3-methylbutanoyl)-2-pyrrolidinyl)-1H-imidazol-4-yl)phenyl)bicyclo[2.2.2]oct-1-yl)-1,3-oxazol-2-yl)-1-pyrrolidinyl)carbonyl)-2-methylpropyl)carbamate] | 1000 to 10000 |
| COC(=O)N[C@H](C(=O)N1[C@@H]2C[C@@H]2C[C@H]1c1ncc(-c2ccc(C34CCC(c5cnc([C@@H]6C[C@H]7C[C@H]7N6C(=O)[C@@H](NC(=O)OC)C(C)C)[nH]5)(CC3)CC4)cc2)[nH]1)C(C)C [Example M-5, methyl ((1S)-1-(((1R,3S,5R)-3-(5-(4-(4-(2-((1R,3S,5R)-2-((2S)-2-((methoxycarbonyl)amino)-3-methylbutanoyl)-2-azabicyclo[3.1.0]hex-3-yl)-1H-imidazol-5-yl)bicyclo[2.2.2]oct-1-yl)phenyl)-1H-imidazol-2-yl)-2-azabicyclo[3.1.0]hex-2-yl)carbonyl)-2-methylpropyl)carbamate] | 2 to 4.57 |
| CC[C@H](NC(=O)OC)C(=O)N1[C@@H]2C[C@@H]2C[C@H]1c1ncc(-c2ccc(C34CCC(c5cnc([C@@H]6C[C@H]7C[C@H]7N6C(=O)[C@H](CC)NC(=O)OC)[nH]5)(CC3)CC4)cc2)[nH]1 [Example M-6, methyl ((1S)-1-(((1R,3S,5R)-3-(5-(4-(4-(2-((1R,3S,5R)-2-((2S)-2-((methoxycarbonyl)amino)butanoyl)-2-azabicyclo[3.1.0]hex-3-yl)-1H-imidazol-5-yl)bicyclo[2.2.2]oct-1-yl)phenyl)-1H-imidazol-2-yl)-2-azabicyclo[3.1.0]hex-2-yl)carbonyl)propyl)carbamate] | 2 to 4.57 |
| COC(=O)N[C@@H](C(=O)N1[C@@H]2C[C@@H]2C[C@H]1c1ncc(-c2ccc(C34CCC(c5cnc([C@@H]6C[C@H]7C[C@H]7N6C(=O)[C@H](NC(=O)OC)c6ccccc6)[nH]5)(CC3)CC4)cc2)[nH]1)c1ccccc1 [Example M-7, methyl ((1R)-2-((1R,3S,5R)-3-(5-(4-(4-(2-((1R,3S,5R)-2-((2R)-2-((methoxycarbonyl)amino)-2-phenylacetyl)-2-azabicyclo[3.1.0]hex-3-yl)-1H-imidazol-5-yl)bicyclo[2.2.2]oct-1-yl)phenyl)-1H-imidazol-2-yl)-2-azabicyclo[3.1.0]hex-2-yl)-2-oxo-1-phenylethyl)carbamate] | 2 to 4.57 |
| COC(=O)N[C@H](C(=O)N1[C@@H]2C[C@@H]2C[C@H]1c1nc(Cl)c(-c2ccc(C34CCC(c5[nH]c([C@@H]6C[C@H]7C[C@H]7N6C(=O)[C@@H](NC(=O)OC)C(C)C)nc5Cl)(CC3)CC4)cc2)[nH]1)C(C)C [Example M-8, methyl ((1S)-1-(((1R,3S,5R)-3-(4-chloro-5-(4-(4-(4-chloro-2-((1R,3S,5R)-2-((2S)-2-((methoxycarbonyl)amino)-3-methylbutanoyl)-2-azabicyclo[3.1.0]hex-3-yl)-1H-imidazol-5-yl)bicyclo[2.2.2]oct-1-yl)phenyl)-1H-imidazol-2-yl)-2-azabicyclo[3.1.0]hex-2-yl)carbonyl)-2-methylpropyl)carbamate] | 2 to 4.57 |
